How the values were obtained:
Assay type in all cases: in vivo
[1] = tested on: barnyardgrass (Echinochloa crus-galli); assay: Test G Pre-Emergence Protocol; conditions: Echinochloa crus-galli, pre-emergence, 312 h, evaluated after 13 days; for pest or weed control at 15.625 g/ha: 15.625 g ai/ha, read-out: Barnyard grass damage rating (100=total damage to plant; 0=no damage to plant); for pest or weed control at 62.5 g/ha: 62.5 g ai/ha, 100=total damage to plant, 0=no damage to plant, read-out: plant damage rating, Barnyardgrass; for pest or weed control at 250 g/ha: 250 g ai/ha, read-out: Barnyardgrass damage rating (100=total damage to plant; 0=no damage to plant)
Outline: (§1)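 Test compound in 0.5% Tween 20 acetone/water (50:50) was applied at three rates (15.625, 62.5, 250 g/ha) to soil sown one day earlier. After 13 days plants were scored for injury, where 0 means unaffected and 100 means completely damaged.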

corn (Zea mays) [2] = assay: Test G Pre-Emergence Protocol; conditions: Zea mays, pre-emergence, 312 h, evaluated after 13 days; for plant injury at 15.625 g/ha: 15.625 g ai/ha; for plant injury at 15.625 g/ha / plant injury at 250 g/ha: read-out: Corn damage rating (100=total damage to plant; 0=no damage to plant); for plant injury at 62.5 g/ha: 62.5 g ai/ha, 100=total damage to plant, 0=no damage to plant, read-out: plant damage rating, Corn; for plant injury at 250 g/ha: 250 g ai/ha
Outline: as §1

[3] = tested on: giant foxtail (Setaria faberi); assay: Test G Pre-Emergence Protocol; conditions: Setaria faberi, pre-emergence, 312 h, evaluated after 13 days; for pest or weed control at 15.625 g/ha: 15.625 g ai/ha; for pest or weed control at 15.625 g/ha / pest or weed control at 250 g/ha: read-out: Foxtail, Giant damage rating (100=total damage to plant; 0=no damage to plant); for pest or weed control at 62.5 g/ha: 62.5 g ai/ha, 100=total damage to plant, 0=no damage to plant, read-out: plant damage rating, Foxtail, Giant; for pest or weed control at 250 g/ha: 250 g ai/ha
Outline: as §1

[4] = tested on: ivy-leaved morning glory (Ipomoea hederacea); assay: Test G Pre-Emergence Protocol; conditions: Ipomoea, pre-emergence, 312 h, evaluated after 13 days; for pest or weed control at 15.625 g/ha: 15.625 g ai/ha, read-out: Morning-glory, Ivy-leaved damage rating (100=total damage to plant; 0=no damage to plant); for pest or weed control at 62.5 g/ha: 62.5 g ai/ha, 100=total damage to plant, 0=no damage to plant, read-out: plant damage rating, Morningglory, Ivy-leaved; for pest or weed control at 250 g/ha: 250 g ai/ha, read-out: Morningglory, Ivy-leaved damage rating (100=total damage to plant; 0=no damage to plant)
Outline: as §1

[5] = tested on: redroot pigweed (Amaranthus retroflexus); assay: Test G Pre-Emergence Protocol; conditions: Amaranthus retroflexus, pre-emergence, 312 h, evaluated after 13 days; for pest or weed control at 15.625 g/ha: 15.625 g ai/ha; for pest or weed control at 15.625 g/ha / pest or weed control at 250 g/ha: read-out: Pigweed, Redroot damage rating (100=total damage to plant; 0=no damage to plant); for pest or weed control at 62.5 g/ha: 62.5 g ai/ha, 100=total damage to plant, 0=no damage to plant, read-out: plant damage rating, Pigweed, Redroot; for pest or weed control at 250 g/ha: 250 g ai/ha
Outline: as §1

[6] = tested on: velvetleaf (Abutilon theophrasti); assay: Test G Pre-Emergence Protocol; conditions: Abutilon theophrasti, pre-emergence, 312 h, evaluated after 13 days; for pest or weed control at 15.625 g/ha: 15.625 g ai/ha; for pest or weed control at 15.625 g/ha / pest or weed control at 250 g/ha: read-out: Velvetleaf damage rating (100=total damage to plant; 0=no damage to plant); for pest or weed control at 62.5 g/ha: 62.5 g ai/ha, 100=total damage to plant, 0=no damage to plant, read-out: plant damage rating, Velvetleaf; for pest or weed control at 250 g/ha: 250 g ai/ha
Outline: as §1

[7] = tested on: barnyardgrass (Echinochloa crus-galli); assay: Test G Post-Emergence Protocol; conditions: Echinochloa crus-galli, post-emergence, 312 h; for pest or weed control at 15.625 g/ha: 15.625 g ai/ha, evaluated after 13 days (100=total damage to plant; 0=no damage to plant), read-out: Barnyardgrass damage rating; for pest or weed control at 62.5 g/ha: 62.5 g ai/ha, read-out: Barnyardgrass damage rating (100=total damage to plant; 0=no damage to plant); for pest or weed control at 62.5 g/ha / pest or weed control at 250 g/ha: evaluated after 13 days; for pest or weed control at 250 g/ha: 250 g ai/ha, read-out: damage to plant, Barnyardgrass (100=total damage to plant; 0=no damage to plant)
Outline: (§2)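 Pot-grown seedlings, 8 days old, raised in a glasshouse at 24/16 °C day/night with 14 h light and 65% humidity, were sprayed post-emergence with test compound in acetone/water (50:50) plus 0.5% Tween 20 at 15.625, 62.5 or 250 g/ha. Damage was scored visually 13 days later on a 0–100 scale (100 = total damage).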

corn (Zea mays) [8] = assay: Test G Post-Emergence Protocol; conditions: Zea mays, post-emergence, 312 h; for plant injury at 15.625 g/ha: 15.625 g ai/ha, evaluated after 13 days (100=total damage to plant; 0=no damage to plant), read-out: Corn damage rating; for plant injury at 62.5 g/ha: 62.5 g ai/ha, read-out: Corn damage rating (100=total damage to plant; 0=no damage to plant); for plant injury at 62.5 g/ha / plant injury at 250 g/ha: evaluated after 13 days; for plant injury at 250 g/ha: 250 g ai/ha, read-out: damage to plant, Corn (100=total damage to plant; 0=no damage to plant)
Outline: as §2

[9] = tested on: giant foxtail (Setaria faberi); assay: Test G Post-Emergence Protocol; conditions: Setaria faberi, post-emergence, 312 h; for pest or weed control at 15.625 g/ha: 15.625 g ai/ha, evaluated after 13 days (100=total damage to plant; 0=no damage to plant), read-out: Foxtail, Giant damage rating; for pest or weed control at 62.5 g/ha: 62.5 g ai/ha, read-out: Foxtail, Giant damage rating (100=total damage to plant; 0=no damage to plant); for pest or weed control at 62.5 g/ha / pest or weed control at 250 g/ha: evaluated after 13 days; for pest or weed control at 250 g/ha: 250 g ai/ha, read-out: damage to plant, Foxtail, Giant (100=total damage to plant; 0=no damage to plant)
Outline: as §2

[10] = tested on: ivy-leaved morning glory (Ipomoea hederacea); assay: Test G Post-Emergence Protocol; conditions: Ipomoea, post-emergence, 312 h; for pest or weed control at 15.625 g/ha: 15.625 g ai/ha, evaluated after 13 days (100=total damage to plant; 0=no damage to plant), read-out: Morningglory, Ivy-leaved damage rating; for pest or weed control at 62.5 g/ha: 62.5 g ai/ha, read-out: Morningglory, Ivy-leaved damage rating (100=total damage to plant; 0=no damage to plant); for pest or weed control at 62.5 g/ha / pest or weed control at 250 g/ha: evaluated after 13 days; for pest or weed control at 250 g/ha: 250 g ai/ha, read-out: damage to plant, Morningglory, Ivy-leaved (100=total damage to plant; 0=no damage to plant)
Outline: as §2

[11] = tested on: redroot pigweed (Amaranthus retroflexus); assay: Test G Post-Emergence Protocol; conditions: Amaranthus retroflexus, post-emergence, 312 h; for pest or weed control at 15.625 g/ha: 15.625 g ai/ha, evaluated after 13 days (100=total damage to plant; 0=no damage to plant), read-out: Pigweed, Redroot damage rating; for pest or weed control at 62.5 g/ha: 62.5 g ai/ha, read-out: Pigweed, Redroot damage rating (100=total damage to plant; 0=no damage to plant); for pest or weed control at 62.5 g/ha / pest or weed control at 250 g/ha: evaluated after 13 days; for pest or weed control at 250 g/ha: 250 g ai/ha, read-out: damage to plant, Pigweed, Redroot (100=total damage to plant; 0=no damage to plant)
Outline: as §2

[12] = tested on: velvetleaf (Abutilon theophrasti); assay: Test G Post-Emergence Protocol; conditions: Abutilon theophrasti, post-emergence, 312 h; for pest or weed control at 15.625 g/ha: 15.625 g ai/ha, evaluated after 13 days (100=total damage to plant; 0=no damage to plant), read-out: Velvetleaf damage rating; for pest or weed control at 62.5 g/ha: 62.5 g ai/ha, read-out: Velvetleaf damage rating (100=total damage to plant; 0=no damage to plant); for pest or weed control at 62.5 g/ha / pest or weed control at 250 g/ha: evaluated after 13 days; for pest or weed control at 250 g/ha: 250 g ai/ha, read-out: damage to plant, Velvetleaf (100=total damage to plant; 0=no damage to plant)
Outline: as §2

SMILES	pest or weed control at 15.625 g/ha [1]	pest or weed control at 62.5 g/ha [1]	pest or weed control at 250 g/ha [1]	plant injury at 15.625 g/ha (corn (Zea mays) [2])	plant injury at 62.5 g/ha (corn (Zea mays) [2])	plant injury at 250 g/ha (corn (Zea mays) [2])	pest or weed control at 15.625 g/ha [3]	pest or weed control at 62.5 g/ha [3]	pest or weed control at 250 g/ha [3]	pest or weed control at 15.625 g/ha [4]	pest or weed control at 62.5 g/ha [4]	pest or weed control at 250 g/ha [4]	pest or weed control at 15.625 g/ha [5]	pest or weed control at 62.5 g/ha [5]	pest or weed control at 250 g/ha [5]	pest or weed control at 15.625 g/ha [6]	pest or weed control at 62.5 g/ha [6]	pest or weed control at 250 g/ha [6]	pest or weed control at 15.625 g/ha [7]	pest or weed control at 62.5 g/ha [7]	further results
Cc1n[nH]c(NC(=O)[C@@H]2C(=O)N(C)C[C@H]2c2ccc(C(F)(F)F)cc2)c1C#N (racemic) [Compound 1582]	0%	0%	0%	0%	0%	0%	0%	0%	0%	0%	0%	0%	0%	0%	0%	0%	0%	0%	0%	0%	pest or weed control at 250 g/ha [7]: 0%; plant injury at 15.625 g/ha (corn (Zea mays) [8]): 0%; plant injury at 62.5 g/ha (corn (Zea mays) [8]): 0%; plant injury at 250 g/ha (corn (Zea mays) [8]): 0%; pest or weed control at 15.625 g/ha [9]: 0%; pest or weed control at 62.5 g/ha [9]: 0%; pest or weed control at 250 g/ha [9]: 0%; pest or weed control at 15.625 g/ha [10]: 0%; pest or weed control at 15.625 g/ha [11]: 0%; pest or weed control at 62.5 g/ha [11]: 0%; pest or weed control at 250 g/ha [11]: 0%; pest or weed control at 15.625 g/ha [12]: 0%; pest or weed control at 62.5 g/ha [12]: 0%; pest or weed control at 250 g/ha [12]: 0%
CN1C[C@@H](c2ccc(C(F)(F)F)cc2)[C@H](C(=O)Nc2cncnc2)C1=O (racemic) [Compound 1583]	0%	0%	0%	0%	0%	0%	0%	0%	30%	0%	0%	0%	0%	0%	30%	0%	0%	0%	0%	0%	pest or weed control at 250 g/ha [7]: 20%; plant injury at 15.625 g/ha (corn (Zea mays) [8]): 0%; plant injury at 62.5 g/ha (corn (Zea mays) [8]): 0%; plant injury at 250 g/ha (corn (Zea mays) [8]): 0%; pest or weed control at 15.625 g/ha [9]: 0%; pest or weed control at 62.5 g/ha [9]: 20%; pest or weed control at 250 g/ha [9]: 10%; pest or weed control at 15.625 g/ha [10]: 0%; pest or weed control at 62.5 g/ha [10]: 10%; pest or weed control at 250 g/ha [10]: 30%; pest or weed control at 15.625 g/ha [11]: 0%; pest or weed control at 62.5 g/ha [11]: 0%; pest or weed control at 250 g/ha [11]: 20%; pest or weed control at 15.625 g/ha [12]: 0%; pest or weed control at 62.5 g/ha [12]: 0%; pest or weed control at 250 g/ha [12]: 20%
CSc1ccccc1NC(=O)[C@@H]1C(=O)N(C)C[C@H]1c1ccc(C(F)(F)F)nc1 (racemic) [Compound 1584]	0%	0%	90%	0%	0%	70%	0%	50%	90%	0%	0%	10%	0%	0%	60%	0%	0%	20%	0%	0%	pest or weed control at 250 g/ha [7]: 70%; plant injury at 15.625 g/ha (corn (Zea mays) [8]): 0%; plant injury at 62.5 g/ha (corn (Zea mays) [8]): 10%; plant injury at 250 g/ha (corn (Zea mays) [8]): 0%; pest or weed control at 15.625 g/ha [9]: 0%; pest or weed control at 62.5 g/ha [9]: 40%; pest or weed control at 250 g/ha [9]: 80%; pest or weed control at 15.625 g/ha [10]: 0%; pest or weed control at 62.5 g/ha [10]: 20%; pest or weed control at 250 g/ha [10]: 10%; pest or weed control at 15.625 g/ha [11]: 0%; pest or weed control at 62.5 g/ha [11]: 0%; pest or weed control at 250 g/ha [11]: 40%; pest or weed control at 15.625 g/ha [12]: 0%; pest or weed control at 62.5 g/ha [12]: 0%; pest or weed control at 250 g/ha [12]: 20%
